Drawing on patent US4870085A, “Tryptamine derivatives active on central nervous system” (Bayer Aktiengesellschaft, priority 1984, dated 1989), this text covers Ki for 32 compounds.

Structures can show the parent of a compound that is named as a salt.

T1 sequence (P14842 whole entry): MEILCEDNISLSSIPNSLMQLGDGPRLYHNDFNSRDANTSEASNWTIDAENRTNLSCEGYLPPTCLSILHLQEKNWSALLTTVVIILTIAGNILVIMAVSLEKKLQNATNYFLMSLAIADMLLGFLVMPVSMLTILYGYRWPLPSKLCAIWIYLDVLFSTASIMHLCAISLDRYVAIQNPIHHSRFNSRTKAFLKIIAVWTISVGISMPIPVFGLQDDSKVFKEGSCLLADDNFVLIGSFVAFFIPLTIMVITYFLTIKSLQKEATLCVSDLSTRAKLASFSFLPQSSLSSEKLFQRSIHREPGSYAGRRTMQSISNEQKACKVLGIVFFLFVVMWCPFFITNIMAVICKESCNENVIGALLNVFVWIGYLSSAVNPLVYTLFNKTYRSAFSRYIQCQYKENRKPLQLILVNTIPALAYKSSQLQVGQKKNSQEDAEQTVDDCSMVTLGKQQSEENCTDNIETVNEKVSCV

For the first experiment, the target named is 5-HT1 receptor. The experiment is described as follows: Interaction with serotonin receptors: 5-HT1 receptor, calf hippocampus, ligand 3H-serotonin. The class given is binding. The note with it: ligand 3H-serotonin (Table 2), read-out: K1. How it is done:
(§1) Interaction with serotonin receptors
(§2) Inhibition constant K1 (nmol l^-1)
Ligand: ^3 H--serotonin
In generally similar manner there were prepared additional compounds which, when tested against 5-HT, receptors as in Example 7, gave the results shown in Table 2.
Consider `C[C@H]1CCC[C@H](C)N1CCc1c[nH]c2ccc(OCc3ccccc3)cc12` (relative stereo) [compound 15], for which the Ki is 500 nM.
As for `C[C@H]1CCC[C@H](C)N1CCc1c[nH]c2ccc(O)cc12` (relative stereo) [compound 17], the Ki was found to be 25 nM.
Same read-out and setting: for `COc1ccc2[nH]cc(CCN3[C@@H](C)CCC[C@@H]3C)c2c1` (relative stereo) [compound 20] the value was 450 nM; for `COc1ccc2[nH]cc(CCN3[C@@H](C)CCC[C@@H]3C)c2c1` (relative stereo) [compound 22], 45 nM.
Still for that read-out and setting: the result for `C[C@H]1CCC[C@H](C)N1CCc1c[nH]c2ccccc12` (relative stereo) [compound 29] reads 3000 nM.
Still for that read-out and setting: for `COc1ccc2[nH]cc(CCN3[C@H](C)CCC[C@@H]3C)c2c1` [compound 9] the value was 13 nM.
Take `COc1ccc2[nH]cc(CCN3[C@H](C)CCC[C@@H]3C)c2c1` [compound 10]: the Ki came out at 10 nM.
Same read-out and setting: the result for `C[C@@H]1CCC[C@H](C)N1CCc1c[nH]c2ccc(OCc3ccccc3)cc12` [compound 11] reads 200 nM; that for `C[C@@H]1CCC[C@H](C)N1CCc1c[nH]c2ccc(O)cc12` [compound 12], 15 nM; that for `C[C@@H]1CCC[C@H](C)N1CCc1cn(C(N)=O)c2ccccc12` [compound 13], 1800 nM.
Turning to `C[C@@H]1CCC[C@H](C)N1CCc1c[nH]c2ccc(OCc3ccccc3)cc12` [compound 14], the Ki was 800 nM.
Same read-out and setting: for `C[C@@H]1CCC[C@H](C)N1CCc1c[nH]c2ccc(O)cc12` [compound 16] the value was 4 nM; for `C[C@@H]1CCC[C@H](C)N1CCc1c[nH]c2ccc(Br)cc12` [compound 18], 30 nM; for `C[C@@H]1CCC[C@H](C)N1CCc1c[nH]c2ccccc12` [compound 19], 800 nM.
The same measure, in the same setting: the result for `COc1ccc2[nH]cc(CCN3[C@H](C)CCC[C@@H]3C)c2c1` [compound 21] reads 70 nM; that for `C[C@@H]1CCC[C@H](C)N1CCc1c[nH]c2ccc(Cl)cc12` [compound 23], 60 nM.
As for `C[C@@H]1CCC[C@H](C)N1CCc1c[nH]c2ccc(F)cc12` [compound 24], the Ki came out at 170 nM.
The same measure, in the same setting: the result for `CC1CCCCN1CCc1c[nH]c2ccccc12` (centres unmarked) [compound 25] reads 170 nM; that for `CC1CC(C)N(CCc2c[nH]c3ccccc23)C(C)C1` (centres unmarked) [compound 26], 920 nM; that for `Cc1ccc2[nH]cc(CCN3[C@H](C)CCC[C@@H]3C)c2c1` [compound 27], 40 nM.
On the same count and under the same terms, for `C[C@@H]1CCC[C@H](C)N1CCc1c[nH]c2ccc(C#N)cc12` [compound 28] the value was 240 nM.
As to `C[C@@H]1CCC[C@H](C)N1CCc1cn(C(=O)OC(C)(C)C)c2ccccc12` [compound 30], the Ki is 1800 nM.
`Cc1ccc(S(=O)(=O)n2cc(CCN3[C@H](C)CCC[C@@H]3C)c3cc(Br)ccc32)cc1` [compound 31]: the Ki was 3200 nM.
With `C[C@@H]1CCC[C@H](C)N1CCc1c[nH]c2ccc(-n3cc(CCN4[C@H](C)CCC[C@@H]4C)c4cc(Br)ccc43)cc12` [compound 32], the Ki turned out to be 680 nM.
Same read-out and setting: for `C[C@@H]1CCC[C@H](C)N1CCc1cn(C)c2ccc(Br)cc12` [compound 34] the value was 1100 nM; for `C[C@@H]1CCC[C@H](C)N1CCc1c[nH]c2ccc(CN)cc12` [compound 35], 500 nM; for `C[C@@H]1CCC[C@H](C)N1CCc1cn(C(=O)c2ccccc2)c2ccc(Br)cc12` [compound 36], 1000 nM.
`C[C@@H]1CCC[C@H](C)N1CCc1c[nH]c2ccc(C(N)=O)cc12` [compound 37]: the Ki was determined as 7 nM.
Same read-out and setting: for `CC1CC(C)N(CCc2c[nH]c3ccc(Cl)cc23)C(C)C1` (centres unmarked) [compound 38] the value was 660 nM; for `CC1(C)CCCC(C)(C)N1CCc1c[nH]c2ccccc12` [compound 39], greater than 10000 nM.

Another experiment addresses T1, 5-HT2 receptor (Rattus norvegicus, UniProt P14842).
T1 construct: rat prefrontal cortex; from tissue; host or cells: rat prefrontal cortex
Kind of experiment: Interaction with serotonin receptors: 5-HT2 receptor, rat prefrontal cortex, ligand 3H-ketanserin. In kind it is binding.
Settings: not given
Excerpt: as §1, §2
5-HT2 receptor Contraction of the
Ligand: ^3 H--ketanserin
As to `C[C@@H]1CCC[C@H](C)N1CCc1c[nH]c2ccccc12` [Example 2, 3-[2-(Cis-2,6-dimethylpiperidinyl)ethyl]indole hydrochloride], the Ki is 2500 nM.
For `C[C@@H]1CCC[C@H](C)N1CCc1c[nH]c2ccc(Br)cc12` [Example 3, 3-[2-(Cis-2,6-dimethylpiperidinyl)ethyl]-5-bromoindole hydrochloride], the Ki was 1300 nM.
